Literature values, collected in patent publication US20020068688A1, “Cleaning compositions” (Unilever Home & Personal Care USA, Division of Conopco, Inc., priority 2000, published 2002).

Details: grams of solid to form a saturated solution in 100 grams of water at 20° C.

SMILES: NC(N)=O [Urea]
- Water Solubility: >100 g/100 g
